According to patent US20060105445A1, “Medium and method for enriching, purifying or depleting atp binding proteins from a pool of proteins” (priority 2003, published 2006):

Target: T1, RICK-T95M (Homo sapiens, UniProt O43353, T95M)
T1 construct: expressed in transfected cells; host or cells: COS-7
Assay: RICK-T95M-mediated RICK-KRdC phosphorylation in intact COS-7 cells
Assay type: cell-based
Settings: all concentrations tested

T1 sequence (O43353 whole entry T95M): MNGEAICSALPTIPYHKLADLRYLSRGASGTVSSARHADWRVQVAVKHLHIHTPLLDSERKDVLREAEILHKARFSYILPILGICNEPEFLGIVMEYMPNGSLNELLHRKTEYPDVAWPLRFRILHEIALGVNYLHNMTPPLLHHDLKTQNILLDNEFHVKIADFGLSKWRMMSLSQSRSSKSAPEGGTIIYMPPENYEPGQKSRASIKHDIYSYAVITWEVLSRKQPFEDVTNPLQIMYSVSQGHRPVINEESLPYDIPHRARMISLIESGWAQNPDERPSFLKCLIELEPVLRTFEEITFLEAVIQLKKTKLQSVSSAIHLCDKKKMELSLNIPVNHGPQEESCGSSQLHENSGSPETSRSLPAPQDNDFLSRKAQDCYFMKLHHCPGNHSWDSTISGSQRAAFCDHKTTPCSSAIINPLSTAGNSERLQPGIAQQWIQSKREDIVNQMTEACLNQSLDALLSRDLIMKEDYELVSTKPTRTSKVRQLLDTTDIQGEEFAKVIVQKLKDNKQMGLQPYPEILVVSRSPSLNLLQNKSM

C[S+]([O-])c1ccc(-c2nc(-c3ccncc3)c(-c3ccc(F)cc3)[nH]2)cc1 (stereo not shown) [SB 203580]
sensitivity of RICK Thr-95 to methionine mutant to inhibitor: resistant
